Our source for the IC50 and inhibition values is patent publication US8822449B2, “Substituted aminoindanes and analogs thereof, and the pharmaceutical use thereof” (Sanofi, priority 2008, dated 2014).

SMILES strings stand for the structures.

This assay deals with T1, sodium-proton exchanger of subtype 3 (NHE3) (Homo sapiens, UniProt P48764).
T1 construct: expressed in transfected cells
T1 sequence (P48764 26-834): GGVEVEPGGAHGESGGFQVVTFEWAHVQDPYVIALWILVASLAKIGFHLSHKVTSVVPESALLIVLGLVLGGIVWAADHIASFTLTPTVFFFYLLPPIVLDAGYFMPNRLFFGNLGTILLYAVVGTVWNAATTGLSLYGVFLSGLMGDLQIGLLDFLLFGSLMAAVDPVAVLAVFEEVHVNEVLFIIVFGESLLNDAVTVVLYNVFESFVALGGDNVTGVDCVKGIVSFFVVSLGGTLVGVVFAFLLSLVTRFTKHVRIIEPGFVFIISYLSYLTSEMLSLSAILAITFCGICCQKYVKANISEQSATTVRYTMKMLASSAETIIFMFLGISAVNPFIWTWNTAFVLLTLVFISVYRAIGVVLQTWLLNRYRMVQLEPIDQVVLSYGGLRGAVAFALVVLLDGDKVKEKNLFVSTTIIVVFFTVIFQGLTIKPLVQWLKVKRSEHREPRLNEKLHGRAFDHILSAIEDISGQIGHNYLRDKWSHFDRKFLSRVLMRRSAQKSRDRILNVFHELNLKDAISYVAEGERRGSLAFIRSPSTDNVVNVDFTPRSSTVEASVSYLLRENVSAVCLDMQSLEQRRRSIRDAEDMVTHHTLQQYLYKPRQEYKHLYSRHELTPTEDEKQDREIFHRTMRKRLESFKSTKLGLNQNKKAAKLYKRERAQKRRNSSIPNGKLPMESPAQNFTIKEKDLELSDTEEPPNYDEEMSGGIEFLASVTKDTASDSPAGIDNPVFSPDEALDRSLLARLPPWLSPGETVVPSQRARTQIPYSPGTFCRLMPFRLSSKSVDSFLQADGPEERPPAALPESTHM
Nature of the assay: Recovery of intracellular pH (pHi) after acidification in LAP1 cells stably expressing NHE3 (BCECF fluorescence, FLIPR). Format: cell-based. The conditions noted are these: LAP1 cells stably expressing NHE3; pH recovery after acidification; range 1 is % inhibition at 10 μM; read-out: Activity range (inhibitory effect on NHE3).
Regarding `Cc1nnc(C)n1-c1ccc(O[C@H]2c3cc(F)cc(F)c3C[C@@H]2N2CC[C@@H](O)C2)c(Cl)c1` [Example 109, (R)-1-{(1S,2S)-1-[2-chloro-4-(3,5-dimethyl-[1,2,4]triazol-4-yl)phenoxy]-4,6-difluoroindan-2-yl}pyrrolidin-3-ol], the IC50 was below 1000 nM.

`CN(C)CCN(C)[C@H]1Cc2c(Cl)cc(Cl)cc2[C@@H]1Oc1ccc(S(C)(=O)=O)cc1` [Example 671, N-[trans-(1S,2S)-4,6-dichloro-1-(4-methanesulfonylphenoxy)indan-2-yl]-N,N′,N′-trimethyl-ethane-1,2-diamine]: the IC50 was below 1000 nM.

Turning to `Cc1nnc(C)n1-c1ccc(O[C@H]2c3cc(Cl)cc(Cl)c3C[C@@H]2N2CC[C@@H](C#N)C2)cc1` [Example 134, (R)-1-{trans-(1S,2S)-4,6-dichloro-1-[4-(3,5-dimethyl-[1,2,4]triazol-4-yl)phenoxy]indan-2-yl}pyrrolidine-3-carbonitrile], the IC50 is below 1000 nM.

As to `N[C@@H]1CCCN([C@H]2Cc3c(Cl)cc(Cl)cc3[C@@H]2Oc2ccc(-n3cncn3)cc2)C1` [Example 97, (R)-1-[trans-(1S,2S)-4,6-dichloro-1-(4-[1,2,4]triazol-1-ylphenoxy)indan-2-yl]piperidin-3-ylamine], the IC50 was below 1000 nM.

On to `CS(=O)(=O)c1ccc(O[C@H]2c3cc(Cl)cc(Cl)c3C[C@@H]2N2CC[C@@H](O)C2)cc1` [Example 103, (R)-1-[trans-(1S,2S)-4,6-dichloro-1-(4-methanesulfonylphenoxy)indan-2-yl]pyrrolidin-3-ol], for which the IC50 was below 1000 nM.

Take `NS(=O)(=O)c1ccc(O[C@H]2c3cc(Cl)cc(Cl)c3C[C@@H]2N2CC[C@@H](O)C2)c(F)c1` [Example 741, 4-[trans-(1S,2S)-4,6-Dichloro-2-((R)-3-hydroxy-pyrrolidin-1-yl)-indan-1-yloxy]-3-fluoro-benzenesulfonamide]: the IC50 was below 1000 nM.

Consider `COCCN1CCCN([C@H]2Cc3c(Cl)cc(Cl)cc3[C@@H]2Oc2ccc(-n3c(C)nnc3C)cc2)CC1` [Example 348, 1-{trans-(1S,2S)-4,6-dichloro-1-[4-(3,5-dimethyl-[1,2,4]triazol-4-yl)phenoxy]indan-2-yl}-4-(2-methoxyethyl)-[1,4]diazepane], for which the IC50 is below 1000 nM.

Turning to `NS(=O)(=O)c1ccc(O[C@H]2c3ccccc3C[C@@H]2CN2CCCC2)cc1Cl` (racemic) [Example 389, 2-chloro-4-(2-pyrrolidin-1-ylmethylindan-1-yloxy)benzenesulfonamide], the IC50 was 1000 to 10000 nM.

`CC1(C)NC(=O)N(c2ccc(O[C@H]3c4cc(Cl)cc(Cl)c4C[C@@H]3N3CC[C@@H](O)C3)cc2)C1=O` [Example 425, 3-{4-[(1S,2S)-4,6-dichloro-2-((R)-3-hydroxypyrrolidin-1-yl)indan-1-yloxy]phenyl}-5,5-dimethylimidazolidine-2,4-dione]: the IC50 is below 1000 nM.

On to `c1ccc2c(c1)CC[C@H](N1CCOCC1)[C@H]2Oc1cccc2ncccc12` (racemic) [Example 570, 5-(rac-trans-(1,2)-2-morpholin-4-yl-1,2,3,4-tetrahydronaphthalen-1-yloxy)quinoline], for which the inhibition at 10 µM was in the range of 20 to 50%.

For the compound `NC1CCN([C@@H]2Cc3ccccc3[C@H]2Oc2ccc(S(N)(=O)=O)c(Cl)c2Cl)C1` (mixture of isomers) [Example 542, 4-[rac-trans-(1,2)-2-(3-aminopyrrolidin-1-yl)indan-1-yloxy]-2,3-dichlorobenzenesulfonamide], the IC50 is below 1000 nM.

Regarding `Cc1nnc(C)n1-c1ccc(O[C@H]2c3cc(Cl)cc(Cl)c3C[C@@H]2N2CC[C@@H](O)C2)c(F)c1F` [Example 126, (R)-1-{trans-(1S,2S)-4,6-dichloro-1-[4-(3,5-dimethyl-[1,2,4]triazol-4-yl)-2,3-difluorophenoxy]indan-2-yl}pyrrolidin-3-ol], the IC50 is below 1000 nM.
